Data on 18 compounds can be found in patent publication US8741931B2, “Kinase inhibitors” (priority 2007, dated 2014).

Some results are limits rather than exact numbers.

Holding throughout (assay type): biochemical
In one test the target is PKC theta kinase (Homo sapiens, UniProt Q04759). The experiment in a line: PKC Theta I (coupled enzyme assay, absorbance at 340 nm). Conditions: 240 μM ATP, 18 nM PKC theta, absorbance read out. As for the experimental part:
An assay buffer solution was prepared which consisted of 100 mM HEPES (pH 7.5), 10 mM MgCl2, 25 mM NaCl, 0.1 mM EDTA and 0.01% Brij. […] To 60 μL of this enzyme buffer, in a 384 well plate, was added 2 μL of VRT stock solution in DMSO. The mixture was allowed to equilibrate for 10 mins at 30° C. […] Ki values were calculated from initial rate data by non-linear regression using the Prism software package (Prism 4.0a, Graphpad Software, San Diego, Calif.).

Another test addresses PKC alpha kinase (Homo sapiens, UniProt P17252). The experiment in a line: PKC Alpha (coupled enzyme assay). Conditions: 130 μM ATP, 4.5 nM PKC alpha. As for the experimental part: An assay buffer solution was prepared which consisted of 100 mM HEPES (pH 7.5), 10 mM MgCl2, 25 mM NaCl, 0.1 mM EDTA, 100 μM CaCl2 and 0.01% Brij. […] To 16 μL of this enzyme buffer, in a 384 well plate, was added 1 μL of VRT stock solution in DMSO. The mixture was allowed to equilibrate for 10 mins at 30° C. […] Ki values were calculated from initial rate data by non-linear regression using the Prism software package (Prism 4.0a, Graphpad Software, San Diego, Calif.).

Another test deals with PKC delta kinase (Homo sapiens, UniProt Q05655). The experiment in a line: PKC Delta (coupled enzyme assay). Conditions: 150 μM ATP, 46 nM PKC delta; read-out: Ki PKC delta. As for the experimental part:
An assay buffer solution was prepared which consisted of 100 mM HEPES (pH 7.5), 10 mM MgCl2, 25 mM NaCl, 0.1 mM EDTA and 0.01% Brij. […] To 16 μL of this enzyme buffer, in a 384 well plate, was added 1 μL of VRT stock solution in DMSO. The mixture was allowed to equilibrate for 10 mins at 30° C. […] Ki values were calculated from initial rate data by non-linear regression using the Prism software package (Prism 4.0a, Graphpad Software, San Diego, Calif.).

Chain of PKC delta kinase (Q05655 whole entry): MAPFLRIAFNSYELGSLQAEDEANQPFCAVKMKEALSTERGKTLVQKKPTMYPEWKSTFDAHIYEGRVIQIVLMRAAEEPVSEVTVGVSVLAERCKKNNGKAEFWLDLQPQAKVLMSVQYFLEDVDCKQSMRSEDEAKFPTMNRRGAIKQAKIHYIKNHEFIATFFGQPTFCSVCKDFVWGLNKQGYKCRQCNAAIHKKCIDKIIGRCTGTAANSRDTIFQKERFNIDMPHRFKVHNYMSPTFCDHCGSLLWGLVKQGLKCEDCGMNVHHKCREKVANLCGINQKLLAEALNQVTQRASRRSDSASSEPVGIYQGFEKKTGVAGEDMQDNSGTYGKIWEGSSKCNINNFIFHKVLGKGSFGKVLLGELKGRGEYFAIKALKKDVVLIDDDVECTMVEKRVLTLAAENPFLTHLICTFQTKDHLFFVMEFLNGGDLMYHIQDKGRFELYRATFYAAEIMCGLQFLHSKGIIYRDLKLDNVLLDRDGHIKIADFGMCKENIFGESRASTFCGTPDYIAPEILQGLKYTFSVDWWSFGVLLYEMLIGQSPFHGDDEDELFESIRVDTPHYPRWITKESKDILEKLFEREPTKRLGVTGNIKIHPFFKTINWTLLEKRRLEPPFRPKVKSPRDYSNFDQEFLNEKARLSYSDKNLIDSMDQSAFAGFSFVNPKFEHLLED
Chain of PKC theta kinase (Q04759 whole entry): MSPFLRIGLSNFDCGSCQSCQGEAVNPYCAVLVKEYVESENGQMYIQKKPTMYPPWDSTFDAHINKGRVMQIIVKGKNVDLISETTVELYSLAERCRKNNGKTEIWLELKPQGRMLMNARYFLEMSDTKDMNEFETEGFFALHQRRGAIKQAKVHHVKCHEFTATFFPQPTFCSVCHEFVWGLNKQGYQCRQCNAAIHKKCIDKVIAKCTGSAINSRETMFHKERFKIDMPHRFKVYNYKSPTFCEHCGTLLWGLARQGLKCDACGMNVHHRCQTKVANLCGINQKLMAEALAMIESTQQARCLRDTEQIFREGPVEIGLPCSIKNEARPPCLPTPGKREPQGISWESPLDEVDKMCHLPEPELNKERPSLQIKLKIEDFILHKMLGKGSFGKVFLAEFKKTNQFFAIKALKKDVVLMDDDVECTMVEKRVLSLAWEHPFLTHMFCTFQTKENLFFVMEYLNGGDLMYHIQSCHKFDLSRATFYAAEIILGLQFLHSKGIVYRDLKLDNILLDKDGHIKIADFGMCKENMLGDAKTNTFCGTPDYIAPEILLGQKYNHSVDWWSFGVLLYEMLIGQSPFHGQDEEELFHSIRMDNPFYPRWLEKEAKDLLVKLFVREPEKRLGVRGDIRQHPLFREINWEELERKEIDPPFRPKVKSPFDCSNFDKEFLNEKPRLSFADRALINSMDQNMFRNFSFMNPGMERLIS

Regarding `CC(C)C[C@H]1CN(c2cc(C(=O)c3cccnc3N)c(-c3ccco3)cn2)CCN1` [compound 428], the Ki on PKC theta kinase is 0.5 to 2.8 µM; at PKC alpha kinase, > 2.8 µM; on PKC delta kinase, > 2.8 µM.

For the compound `CC[C@@H]1CN(c2ccc(C(F)(F)F)c(C(=O)c3cccnc3N)n2)C[C@H](C(C)C)N1` [compound 472], the Ki on PKC theta kinase is 0.5 to 2.8 µM; on PKC alpha kinase, > 2.8 µM; on PKC delta kinase, > 2.8 µM.

Regarding `Nc1ncccc1C(=O)c1nc(NCCO)ccc1C(F)(F)F` [compound 423], the Ki was 0.5 to 2.8 µM at PKC theta kinase, > 2.8 µM on PKC alpha kinase and > 2.8 µM on PKC delta kinase.

Turning to `CC(C)C[C@H]1CN(c2ccc(C#CC(C)(C)O)c(C(=O)c3cccnc3N)n2)CCN1` [compound 467], the Ki on PKC theta kinase was 0.5 to 2.8 µM; on PKC alpha kinase it was > 2.8 µM; at PKC delta kinase, > 2.8 µM.

Regarding `Nc1ncccc1C(=O)c1nc(OCC2(N)CCCC2)ccc1C(F)(F)F` [compound 438], the Ki at PKC theta kinase is 0.5 to 2.8 µM; on PKC alpha kinase, > 2.8 µM; on PKC delta kinase, 0.5 to 2.8 µM.

As for `Nc1ncccc1C(=O)c1cccc(N2CCCN(C(=O)c3cccs3)CC2)n1` [compound 90], the Ki on PKC theta kinase was 0.5 to 2.8 µM; at PKC delta kinase, > 2.8 µM.

For `CC(C)[C@H]1CN(c2ccc(C(F)(F)F)c(C(=O)c3cccnc3N)n2)C[C@@H](c2ccccc2)N1` [compound 449], the values for the Ki on PKC theta kinase, on PKC alpha kinase and at PKC delta kinase were 0.5 to 2.8 µM, > 2.8 µM and > 2.8 µM, respectively.

Consider `Nc1ncccc1C(=O)c1cccc(N2CCCN(C(=O)Cc3ccccc3Cl)CC2)n1` [compound 29], for which the Ki at PKC theta kinase is 0.5 to 2.8 µM.

On to `CCC[C@H]1CN(c2ccc(C(F)(F)F)c(C(=O)c3cccnc3N)n2)C[C@H](CC(C)C)N1` [compound 493], for which the Ki on PKC theta kinase is 0.5 to 2.8 µM; at PKC alpha kinase, > 2.8 µM; at PKC delta kinase it was 0.5 to 2.8 µM.

Regarding `Cc1ccc(CC(=O)N2CCCN(c3cccc(C(=O)c4cc(Br)cnc4N)n3)CC2)cc1` [compound 74], the Ki on PKC theta kinase was in the range of 0.5 to 2.8 µM.

As for `CN(C)C1CCN(c2cccc(C(=O)c3cccnc3N)n2)CC1` [compound 137], the Ki at PKC theta kinase lay within 0.5 to 2.8 µM.

As to `CC[C@H]1CN(c2ccc(C(F)(F)F)c(C(=O)c3cccnc3N)n2)C[C@H](CC(C)C)N1` [compound 489], the figures for the Ki on PKC theta kinase, on PKC alpha kinase and on PKC delta kinase were 0.5 to 2.8 µM, > 2.8 µM and 0.5 to 2.8 µM, respectively.

Turning to `CC(C)C1OC(=O)N2CCN(c3ccc(C(F)(F)F)c(C(=O)c4cccnc4N)n3)CC12` (centres unmarked) [compound 453], the Ki at PKC theta kinase was 0.5 to 2.8 µM; on PKC alpha kinase it was > 2.8 µM; at PKC delta kinase it was > 2.8 µM.

The compound `Nc1ncccc1C(=O)c1cccc(N2CCCN(C(=O)Cc3cccc(O)c3)CC2)n1` [compound 77] registered a Ki on PKC theta kinase of 0.5 to 2.8 µM.

On to `Cc1ccoc1C(=O)N1CCCN(c2cccc(C(=O)c3cccnc3N)n2)CC1` [compound 91], for which, on PKC theta kinase, the Ki lay within 0.5 to 2.8 µM.

Consider `Nc1ncc(Br)cc1C(=O)c1cccc(N2CCCN(Cc3ccccc3)CC2)n1` [compound 99], for which the Ki at PKC theta kinase was 0.5 to 2.8 µM.

Take `CCC[C@H]1CN(c2ccc(C(F)(F)F)c(C(=O)c3cccnc3N)n2)C[C@@H](c2ccccc2)N1` [compound 481]: the values for the Ki at PKC theta kinase, on PKC alpha kinase and at PKC delta kinase were 0.5 to 2.8 µM, > 2.8 µM and > 2.8 µM, respectively.

On to `CC(Nc1ccc(C(F)(F)F)c(C(=O)c2cccnc2N)n1)[C@@H](O)c1ccccc1` (some centres unmarked) [compound 430], for which the Ki on PKC theta kinase is 0.5 to 2.8 µM; on PKC alpha kinase, > 2.8 µM; at PKC delta kinase, > 2.8 µM.
